Values quoted from earlier work as cited in US20050201949A1, “Pharmaceutical formulations” (priority 2003, published 2005).
Where a name gives a salt, the structure may show the parent alone.

Conditions: solid tablets with a lactose excipient; Maillard reaction postulated

Degradation in the presence of lactose excipient: undergoes degradation
Structure (SMILES): CNCCC(Oc1ccc(C(F)(F)F)cc1)c1ccccc1 (stereo not shown) [fluoxetine hydrochloride]
